Measurements: patent US7109234B2, “Benzoxathiepine derivatives and their use as medicines” (Pierre Fabre Medicament, priority 2001, dated 2006)
Counter-ions that a name gives are not always drawn.

Structure (SMILES) | melting point [°C]
CC[C@@H](CN[C@@H]1COc2ccccc2SC1)CSc1ccccc1OC (as salt: fumarate) [Compound 1-9, 3-(R)-[3-(2-Methoxyphenylthio)-2-(S)-ethylpropyl]amino-3,4-dihydro-2H-1,5-benzoxathiepine] | 86 to 88
COc1ccccc1SC[C@H](CN[C@@H]1COc2ccccc2SC1)OC (as salt: maleate) [Compound 1-1, 3-(R)-[3-(2-Methoxyphenylthio)-2-(S)-methoxypropyl]amino-3,4-dihydro-2H-1,5-benzoxathiepine] | 122
COc1ccccc1SC[C@@H](CN[C@@H]1COc2ccccc2SC1)OC (as salt: maleate) [Compound 1-2, 3-(R)-[3-(2-Methoxyphenylthio)-2-(R)-methoxypropyl]amino-3,4-dihydro-2H-1,5-benzoxathiepine] | 116
COc1ccccc1SC[C@@H](O)CN[C@@H]1COc2ccccc2SC1 (as salt: maleate) [Compound 1-5, 3-(R)-[3-(2-Methoxyphenylthio)-2-(S)-hydroxypropyl]amino-3,4-dihydro-2H-1,5-benzoxathiepine] | 133 to 135
COc1ccccc1SC[C@H](O)CN[C@@H]1COc2ccccc2SC1 (as salt: maleate) [Compound 1-6, 3-(R)-[3-(2-Methoxyphenylthio)-2-(R)-hydroxypropyl]amino-3,4-dihydro-2H-1,5-benzoxathiepine] | 136 to 138
CC[C@H](CN[C@@H]1COc2ccccc2SC1)CSc1ccccc1OC (as salt: maleate) [Compound 1-10, 3-(R)-[3-(2-Methoxyphenylthio)-2-(R)-ethylpropyl]amino-3,4-dihydro-2H-1,5-benzoxathiepine] | 140
CCC[C@@H](CN[C@@H]1COc2ccccc2SC1)CSc1ccccc1OC (as salt: maleate) [Compound 1-11, 3-(R)-[3-(2-Methoxyphenylthio)-2-(S)-(n-propyl)propyl]amino-3,4-dihydro-2H-1,5-benzoxathiepine] | 132 to 133
CCC[C@H](CN[C@@H]1COc2ccccc2SC1)CSc1ccccc1OC (as salt: maleate) [Compound 1-12, 3-(R)-[3-(2-Methoxyphenylthio)-2-(R)-(n-propyl)propyl]amino-3,4-dihydro-2H-1,5-benzoxathiepine] | 131 to 133
COc1ccccc1SC[C@H](CN[C@@H]1COc2ccccc2SC1)C(C)C (as salt: maleate) [Compound 1-13, 3-(R)-[3-(2-Methoxyphenylthio)-2-(S)-(isopropyl)propyl]amino-3,4-dihydro-2H-1,5-benzoxathiepine] | 114 to 115
COc1ccccc1SC[C@@H](C)CN[C@@H]1COc2ccc(C)cc2SC1 (as salt: maleate) [Compound 1-14, 3-(R)-[3-(2-Methoxyphenylthio)-2-(S)-methylpropyl]amino-7-methyl-3,4-dihydro-2H-1,5-benzoxathiepine] | 148
Oc1ccccc1SC[C@@H](O)CN[C@@H]1COc2ccccc2SC1 (as salt: oxalate) [Compound 1-3, 3-(R)-[3-(2-Hydroxyphenylthio)-2-(S)-hydroxypropyl]amino-3,4-dihydro-2H-1,5-benzoxathiepine] | 176 to 177
Oc1ccccc1SC[C@H](O)CN[C@@H]1COc2ccccc2SC1 (as salt: oxalate) [Compound 1-4, 3-(R)-[3-(2-Hydroxyphenylthio)-2-(R)-hydroxypropyl]amino-3,4-dihydro-2H-1,5-benzoxathiepine] | 135

Now from value to compound:

melting point [°C] | Structure (SMILES)
111 to 113 | COc1ccccc1SC[C@@H](C)CN[C@@H]1COc2cccc(C)c2SC1 (as salt: maleate) [Compound 1-15, 3-(R)-[3-(2-Methoxyphenylthio)-2-(S)-methylpropyl]amino-6-methyl-3,4-dihydro-2H-1,5-benzoxathiepine]
116 to 118 | C[C@@H](CN[C@@H]1COc2ccccc2SC1)CSc1cccc2c1OCC2 (as salt: maleate) [Compound 1-16, 3-(R)-[3-(2,3-Dihydrobenzofuran-7-thio)-2-(S)-methylpropyl]amino-3,4-dihydro-2H-1,5-benzoxathiepine]
124 to 126 | Cc1cccc(SC[C@@H](C)CN[C@@H]2COc3ccccc3SC2)c1O (as salt: maleate) [Compound 1-17, 3-(R)-[3-(2-Hydroxy-3-methylphenylthio)-2-(S)-methylpropyl]amino-3,4-dihydro-2H-1,5-benzoxathiepine]
119 to 121 | C[C@@H](CN[C@@H]1COc2ccccc2SC1)CSc1ccccc1O (as salt: maleate) [Compound 1-18, 3-(R)-[3-(2-Hydroxyphenylthio)-2-(S)-methylpropyl]amino-3,4-dihydro-2H-1,5-benzoxathiepine]
120 | CCc1cccc(SC[C@@H](C)CN[C@@H]2COc3ccccc3SC2)c1O (as salt: maleate) [Compound 1-19, 3-(R)-[3-(2-Hydroxy-3-ethylphenylthio)-2-(S)-methylpropyl]amino-3,4-dihydro-2H-1,5-benzoxathiepine]
111 to 112 | CC[C@@H](CN[C@@H]1COc2ccccc2SC1)CSc1cccc(C)c1O (as salt: maleate) [Compound 1-20, 3-(R)-[3-(2-Hydroxy-3-methylphenylthio)-2-(S)-ethylpropyl]amino-3,4-dihydro-2H-1,5-benzoxathiepine]
127 | Cc1cccc(SC[C@H](CN[C@@H]2COc3ccccc3SC2)C(C)C)c1O (as salt: maleate) [Compound 1-21, 3-(R)-[3-(2-Hydroxy-3-methylphenylthio)-2-(S)-(isopropyl)propyl]amino-3,4-dihydro-2H-1,5-benzoxathiepine]
108 to 109 | Cc1cccc(SC[C@@H](C)CN[C@@H]2COc3cccc(C)c3SC2)c1O (as salt: maleate) [Compound 1-22, 3-(R)-[3-(2-Hydroxy-3-methylphenylthio)-2-(S)-methylpropyl]amino-6-methyl-3,4-dihydro-2H-1,5-benzoxathiepine]
137 to 139 | COc1cccc(SC[C@@H](C)CN[C@@H]2COc3ccccc3SC2)c1O (as salt: maleate) [Compound 1-23, 3-(R)-[3-(2-Hydroxy-3-methoxyphenylthio)-2-(S)-methylpropyl]amino-3,4-dihydro-2H-1,5-benzoxathiepine]
117 to 119 | COc1cccc(SC[C@@H](C)CN[C@@H]2COc3ccccc3SC2)c1OC (as salt: maleate) [Compound 1-24, 3-(R)-[3-(2,3-Dimethoxyphenylthio)-2-(S)-methylpropyl]amino-3,4-dihydro-2H-1,5-benzoxathiepine]
126 | CC(C)c1cccc(SC[C@@H](C)CN[C@@H]2COc3ccccc3SC2)c1O (as salt: maleate) [Compound 1-25, 3-(R)-[3-(2-Hydroxy-3-(isopropyl)phenylthio)-2-(S)-methylpropyl]amino-3,4-dihydro-2H-1,5-benzoxathiepine]
153 to 154 | Cc1cccc(O)c1SC[C@@H](C)CN[C@@H]1COc2ccccc2SC1 (as salt: maleate) [Compound 1-26, 3-(R)-[3-(2-Hydroxy-6-methylphenylthio)-2-(S)-methylpropyl]amino-3,4-dihydro-2H-1,5-benzoxathiepine]
